Assay results as given in patent publication US4442044A, “Process for preparing monoesters and diesters of N-alkyl substituted amino methyl phosphonic acid” (priority 1983, dated 1984).

Assays:
Assay in all cases: post-emergent herbicidal activity, greenhouse
Assay type in all cases: in vivo
[1] = system: Morningglory; conditions: 4 WAT
Method in brief: (§1)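 Post-emergence foliar spray at tabulated application rates, using aliquots of a 1.0% stock in acetone, THF or water plus ~0.4% emulsifier, applied to 2–3-week-old greenhouse plants. Plant injury was rated relative to controls roughly two and four weeks after treatment.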

[2] = system: Downy Brome; conditions: 4 WAT
Method in brief: as §1

[3] = system: Lambsquarters; conditions: 4 WAT
Method in brief: as §1

[4] = system: Soybean; conditions: Table II, 4 WAT
Method in brief: as §1

[5] = system: Velvetleaf; conditions: 4 WAT
Method in brief: as §1

[6] = system: Smartweed; conditions: 4 WAT
Method in brief: as §1

[7] = system: Wild Buckwheat; conditions: Table II, 4 WAT
Method in brief: as §1

[8] = system: Canada Thistle; conditions: Table I, 4 WAT
Method in brief: as §1

[9] = system: Yellow Nutsedge; conditions: Table I, 4 WAT
Method in brief: as §1

[10] = system: Rice; conditions: Table II, 4 WAT
Method in brief: as §1

[11] = system: Wheat; conditions: Table II, 4 WAT
Method in brief: as §1

[12] = system: Hemp Sesbania; conditions: Table II, 4 WAT, 1.12 kg/h
Method in brief: as §1

[13] = system: Johnsongrass; conditions: Table I, 4 WAT
Method in brief: as §1

[14] = system: Sorghum; conditions: Table II, 4 WAT
Method in brief: as §1

[15] = system: Sugar Beet; conditions: Table II, 4 WAT
Method in brief: as §1

[16] = system: Quackgrass; conditions: Table I, 4 WAT
Method in brief: as §1

[17] = system: Panicum Spp; conditions: Table II, 4 WAT
Method in brief: as §1

[18] = system: Crabgrass; conditions: Table II, 4 WAT
Method in brief: as §1

[19] = system: Barnyardgrass; conditions: 4 WAT
Method in brief: as §1

[20] = system: Cocklebur; conditions: 4 WAT
Method in brief: as §1

Measured: post-emergent herbicidal activity index

CCOC(=O)CNCP(=O)(OCCN1CCCC1)OCCN1CCCC1 [Example 24, glycine, N-[[bis[2-(1-pyrrolidinyl)ethoxy]phosphinyl]methyl]-, ethyl ester]
0 (0-24% control): [2]; Table I, 5.6 kg/h | [2]; Table II, 1.12 kg/h | [4]; 1.12 kg/h | [5]; Table II, 1.12 kg/h | [7]; 1.12 kg/h | [10]; 1.12 kg/h | [11]; 1.12 kg/h | [14]; 1.12 kg/h | [15]; 1.12 kg/h | [20]; Table II, 1.12 kg/h
1 (25-49% control): [1]; Table I, 5.6 kg/h | [1]; Table II, 1.12 kg/h | [2]; Table I, 11.2 kg/h | [3]; Table I, 11.2 kg/h | [3]; Table II, 1.12 kg/h | [5]; Table I, 5.6 kg/h | [5]; Table I, 11.2 kg/h | [7]; 5.6 kg/h | [8]; 5.6 kg/h | [8]; 11.2 kg/h | [9]; 11.2 kg/h | [12] | [13]; 5.6 kg/h | [15]; 5.6 kg/h | [16]; 5.6 kg/h | [17]; 1.12 kg/h | [19]; Table II, 1.12 kg/h | [20]; Table I, 5.6 kg/h
2 (50-74% control): [1]; Table I, 11.2 kg/h | [1]; Table II, 5.6 kg/h | [2]; Table II, 5.6 kg/h | [4]; 5.6 kg/h | [5]; Table II, 5.6 kg/h | [6]; Table I, 5.6 kg/h | [6]; Table I, 11.2 kg/h | [6]; Table II, 1.12 kg/h | [6]; Table II, 5.6 kg/h | [9]; 5.6 kg/h | [10]; 5.6 kg/h | [11]; 5.6 kg/h | [13]; 11.2 kg/h | [14]; 5.6 kg/h | [16]; 11.2 kg/h | [18]; 1.12 kg/h | [19]; Table I, 5.6 kg/h | [20]; Table I, 11.2 kg/h
3 (75-99% control): [3]; Table I, 5.6 kg/h | [3]; Table II, 5.6 kg/h | [19]; Table I, 11.2 kg/h | [19]; Table II, 5.6 kg/h | [20]; Table II, 5.6 kg/h
4 (100% control): [17]; 5.6 kg/h | [18]; 5.6 kg/h
